Columns and labels:
[1] = test system: MV4;11 CASP1-/- cells; assay: CellTiter-Glo cell viability, CASP1-/- MV4;11 cells; format: cell-based; settings: Homo sapiens, MV4-11; 24 h, CTG
Protocol: Cloning. CASP1^−/− MV4;11 cells^12; CARD8^−/− MV4;11, THP-1, OCI-AML2 cells^14; DPP8/9^−/− THP-1^12; PEPD^−/−, XPNPEP1^−/−, PEPD XPNPEP1^−/− THP-1 cells were generated. Plasmids for CARD8 variants, CASP1, GSDMD, dTAG-CARD8^ZUC were cloned as described previously (Hollingsworth et al., 2021; Johnson et al., 2018; Sharif et al., 2021).
(§1) CellTiter-Glo cell viability and CytoTox-Fluor cell death assays. Cells were plated (2,000 cells per well) in white, 384-well clear-bottom plates (Corning) using an EL406 Microplate Washer/Dispenser (BioTek) in 25 μL final volume of medium. To the cell plates were added compounds at different concentrations using a pintool (CyBio) and the plates were allowed to incubate in the incubator. After incubation for indicated times, CytoTox-Fluor reagent (Promega, G9262) was added according to the manufacturer's protocol. The assay plates were then incubated for another 30 min before fluorescence was recorded using a Cytation 5 Cell Imaging Multi-Mode Reader (BioTek). Next, CellTiter-Glo reagent (Promega, G7573) was subsequently added to the assay plates following the manufacturer's protocol. Assay plates were shaken on an orbital shaker for 2 min and incubated at 25° C. for 10 min. Luminescence was then read using a Cytation 5 Cell Imaging Multi-Mode Reader (BioTek).

[2] = test system: MV4;11 WT cells; assay: CellTiter-Glo cell viability, WT MV4;11 cells; format: cell-based; settings: Homo sapiens, MV4-11; 24 h, CTG
Protocol: as §1

[3] = test system: MV4;11 cells; assay: Propidium iodide uptake, MV4;11 cells (WT, CASP1-/-, CARD8-/-); format: cell-based; settings: MV4;11 WT vs CASP1-/- or CARD8-/-, 6.25 μM
Protocol: (§2) Propidium iodideflux analysis. 2×10^4 MV4;11 or OCI-AML2 cells were plated in 384-well, black, clear-bottom plate (Corning) in RPMI medium. Cells were then treated as indicated and propidium iodide (PI) was added at a final concentration of 10 μM. PI fluorescence was measured at (Ex/Em: 535/617 nm) recorded at 37° C. every 5 mins in a Cytation 5 Cell Imaging Multi-Mode Reader (BioTek). The obtained measurements were baseline corrected to vehicle/DMSO and normalized to maximum response.

[4] = target: recombinant human PEPD (Homo sapiens (Human), UniProt P12955); assay: PEPD substrate assay (Ala-Pro cleavage, L-alanine assay kit); format: biochemical; settings: for IC50: 50 nM recombinant human PEPD, Ala-Pro 40 μM, 25° C.
[5] = De-esterification in cell culture; format: in vitro ADME; settings: after 24 h
[6] = test system: OCI-AML2 cells; assay: Propidium iodide uptake, OCI-AML2 cells; format: cell-based; settings: 6.25 μM, compared to CQ31
Protocol: as §2

Chain of recombinant human PEPD (P12955 whole entry): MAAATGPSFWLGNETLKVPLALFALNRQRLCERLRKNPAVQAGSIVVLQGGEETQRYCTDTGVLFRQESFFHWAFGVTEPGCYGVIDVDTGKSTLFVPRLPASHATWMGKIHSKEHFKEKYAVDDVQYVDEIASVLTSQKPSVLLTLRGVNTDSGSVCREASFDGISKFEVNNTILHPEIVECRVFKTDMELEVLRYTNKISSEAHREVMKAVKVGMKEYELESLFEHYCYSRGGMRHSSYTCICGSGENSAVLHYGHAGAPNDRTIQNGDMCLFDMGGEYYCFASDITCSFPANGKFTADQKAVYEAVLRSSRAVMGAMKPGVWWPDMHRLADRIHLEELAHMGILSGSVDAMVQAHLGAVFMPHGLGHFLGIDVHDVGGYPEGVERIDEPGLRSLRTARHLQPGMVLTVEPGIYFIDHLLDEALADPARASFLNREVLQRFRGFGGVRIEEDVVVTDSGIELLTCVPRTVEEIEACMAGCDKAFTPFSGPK

Row | SMILES | IC50 [1] [nM] | IC50 [2] [nM] | PI uptake [3] | PEPD inhibition (in words) [4] | IC50 [4] [nM] | de-esterification to CQ04 in cell culture [5] | lytic cell death by uptake of propidium iodide [6]
1 | COC(=O)[C@@H]1CCCN1C(=O)[C@@H](O)[C@H](N)CC(C)C [CQ31] | > 100000 | 3800 | induced PI uptake in WT, but not CASP1−/− or CARD8−/− | inhibited PEPD and XPNPEP1 inhibitors similarly | 670 | completely de-esterified | –
2 | COC(=O)[C@H](CC(C)C)NC(=O)[C@@H]1CCCN1C(=O)[C@@H](O)[C@H](N)CC(C)C [CQ80, Methyl ((2S,3R)-3-amino-2-hydroxy-5-methylhexanoyl)-L-prolyl-L-leucinate] | > 20000 | 270 | induced PI uptake in WT, but not CASP1−/− or CARD8−/− | – | 910 | – | more rapid lytic cell death
